Experimental data reported in ChEMBL document CHEMBL1201861, “Genomics of Drug Sensitity in Cancer screening data, Wellcome Trust Sanger Institute”.

Legend:
Assay in all cases: cells
SK-UT-1 = format: functional, cell-based, Homo sapiens;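 also: growth inhibition of SK-UT-1 cells, measured by a cell viability assay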
Description: SANGER: Inhibition of human SK-UT-1 cell growth in a cell viability assay.

TE-1 = format: functional, cell-based, Homo sapiens
Description: SANGER: Inhibition of human TE-1 cell growth in a cell viability assay.

MC116 = format: functional, cell-based, Homo sapiens;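 also: growth inhibition of MC116 cells, read out with a cell viability assay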
Description: SANGER: Inhibition of human MC116 cell growth in a cell viability assay.

CCRF-CEM = format: functional, cell-based, Homo sapiens;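 also: inhibition of CCRF-CEM cell growth, measured by a cell viability assay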
Description: SANGER: Inhibition of human CCRF-CEM cell growth in a cell viability assay.

EW-3 = format: functional, cell-based, Homo sapiens;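 also: cell viability assay read-out, IC50 reflects inhibition of growth of the EW-3 cells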
Description: SANGER: Inhibition of human EW-3 cell growth in a cell viability assay.

CP66-MEL = format: functional, cell-based, Homo sapiens;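 also: growth inhibition of CP66-MEL cells determined in a cell viability assay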
Description: SANGER: Inhibition of human CP66-MEL cell growth in a cell viability assay.

GR-ST = format: functional, cell-based, Homo sapiens
Description: SANGER: Inhibition of human GR-ST cell growth in a cell viability assay.

NCI-N87 = format: functional, cell-based, Homo sapiens;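 also: growth inhibition of human NCI-N87 cells, read out with a cell viability assay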
Description: SANGER: Inhibition of human NCI-N87 cell growth in a cell viability assay.

HEL = format: functional, cell-based, Homo sapiens;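 also: growth inhibition of HEL cells, read out with a cell viability assay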
Description: SANGER: Inhibition of human HEL cell growth in a cell viability assay.

TE-12 = format: functional, cell-based, Homo sapiens;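 also: growth inhibition of TE-12 cells, read out by a cell viability assay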
Description: SANGER: Inhibition of human TE-12 cell growth in a cell viability assay.

A388 = format: functional, cell-based, Homo sapiens;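 also: growth inhibition of human A388 cells, read out with a cell viability assay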
Description: SANGER: Inhibition of human A388 cell growth in a cell viability assay.

COLO-668 = format: functional, cell-based, Homo sapiens
Description: SANGER: Inhibition of human COLO-668 cell growth in a cell viability assay.

ES8 = format: functional, cell-based, Homo sapiens;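 also: growth inhibition of human ES8 cells, read out with a cell viability assay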
Description: SANGER: Inhibition of human ES8 cell growth in a cell viability assay.

LNCaP-Clone-FGC = format: functional, cell-based, Homo sapiens
Description: SANGER: Inhibition of human LNCaP-Clone-FGC cell growth in a cell viability assay.

SH-4 = format: functional, cell-based, Homo sapiens;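 also: growth inhibition of SH-4 cells, read out with a cell viability assay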
Description: SANGER: Inhibition of human SH-4 cell growth in a cell viability assay.

LU-134-A = format: functional, cell-based, Homo sapiens
Description: SANGER: Inhibition of human LU-134-A cell growth in a cell viability assay.

NKM-1 = format: functional, cell-based, Homo sapiens;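 also: growth inhibition of NKM-1 cells, read out with a cell viability assay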
Description: SANGER: Inhibition of human NKM-1 cell growth in a cell viability assay.

HCC2218 = format: functional, cell-based, Homo sapiens;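 also: cell viability assay read-out, with IC50 given as the concentration that inhibits growth of the cell line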
Description: SANGER: Inhibition of human HCC2218 cell growth in a cell viability assay.

NCI-H23 = format: functional, cell-based, Homo sapiens;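 also: cell viability assay measuring growth inhibition of NCI-H23 cells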
Description: SANGER: Inhibition of human NCI-H23 cell growth in a cell viability assay.

DSH1 = format: functional, cell-based, Homo sapiens;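 also: growth inhibition of human DSH1 cells, measured with a cell viability readout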
Description: SANGER: Inhibition of human DSH1 cell growth in a cell viability assay.

SW 954 = format: functional, cell-based, Homo sapiens;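 also: growth inhibition of SW954 human cancer cells, read out as cell viability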
Description: SANGER: Inhibition of human SW954 cell growth in a cell viability assay.

KARPAS-45 = format: functional, cell-based, Homo sapiens;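 also: inhibition of cell line growth, read out through a viability assay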
Description: SANGER: Inhibition of human KARPAS-45 cell growth in a cell viability assay.

BE-13 = format: functional, cell-based, Homo sapiens;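 also: growth inhibition of human BE-13 cells, measured with a cell viability assay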
Description: SANGER: Inhibition of human BE-13 cell growth in a cell viability assay.

U-87 MG = format: functional, cell-based, Homo sapiens, U-87MG ATCC;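 also: growth inhibition of the cells measured with a viability assay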
Description: SANGER: Inhibition of human U-87-MG cell growth in a cell viability assay.

LC-2-ad = format: functional, cell-based, Homo sapiens;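 also: growth inhibition of human LC-2-ad cells, read out with a cell viability assay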
Description: SANGER: Inhibition of human LC-2-ad cell growth in a cell viability assay.

A498 = format: functional, cell-based, Homo sapiens;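 also: growth inhibition of human A498 cells, read out with a cell viability assay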
Description: SANGER: Inhibition of human A498 cell growth in a cell viability assay.

SK-MEL-2 = format: functional, cell-based, Homo sapiens;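 also: growth inhibition of human SK-MEL-2 cells measured with a cell viability assay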
Description: SANGER: Inhibition of human SK-MEL-2 cell growth in a cell viability assay.

NCI-H526 = format: functional, cell-based, Homo sapiens;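 also: growth inhibition of the human NCI-H526 cell line, measured by a cell viability assay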
Description: SANGER: Inhibition of human NCI-H526 cell growth in a cell viability assay.

EW-24 = format: functional, cell-based, Homo sapiens; conditions: Homo sapiens, EW-24;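 also: human EW-24 cancer cell line, growth inhibition read out via a cell viability assay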
Description: SANGER: Inhibition of human EW-24 cell growth in a cell viability assay.

NOMO-1 = format: functional, cell-based, Homo sapiens;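 also: growth inhibition of human NOMO-1 cells measured by a cell viability assay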
Description: SANGER: Inhibition of human NOMO-1 cell growth in a cell viability assay.

ES3 = format: functional, cell-based, Homo sapiens;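 also: growth inhibition of ES3 cells, read out with a cell viability assay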
Description: SANGER: Inhibition of human ES3 cell growth in a cell viability assay.

SK-N-FI = format: functional, cell-based, Homo sapiens;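 also: cell viability assay measuring growth inhibition of human SK-N-FI cells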
Description: SANGER: Inhibition of human SK-N-FI cell growth in a cell viability assay.

IST-MEL1 = format: functional, cell-based, Homo sapiens;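 also: growth inhibition of the cell line, read out with a cell viability assay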
Description: SANGER: Inhibition of human IST-MEL1 cell growth in a cell viability assay.

RH-1 = format: functional, cell-based, Homo sapiens;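 also: growth inhibition of human RH-1 cells, read out with a cell viability assay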
Description: SANGER: Inhibition of human RH-1 cell growth in a cell viability assay.

HCE-T = format: functional, cell-based, Homo sapiens;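 also: cell viability assay read-out, reporting inhibition of HCE-T cell growth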
Description: SANGER: Inhibition of human HCE-T cell growth in a cell viability assay.

MEG-01 = format: functional, cell-based, Homo sapiens;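 also: growth inhibition of MEG-01 cells, read out by a cell viability assay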
Description: SANGER: Inhibition of human MEG-01 cell growth in a cell viability assay.

KM12 = format: functional, cell-based, Homo sapiens;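 also: KM12 cell growth inhibition, read out with a cell viability assay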
Description: SANGER: Inhibition of human KM12 cell growth in a cell viability assay.

GB-1 = format: functional, cell-based, Homo sapiens;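 also: growth of GB-1 cells judged by a viability assay, IC50 marks the concentration inhibiting growth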
Description: SANGER: Inhibition of human GB-1 cell growth in a cell viability assay.

ACN = format: functional, cell-based, Homo sapiens;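 also: growth inhibition of the human ACN cell line, read out via cell viability testing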
Description: SANGER: Inhibition of human ACN cell growth in a cell viability assay.

NCI-H747 = format: functional, cell-based, Homo sapiens;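 also: growth inhibition of human NCI-H747 cells, read out by a cell viability assay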
Description: SANGER: Inhibition of human NCI-H747 cell growth in a cell viability assay.

U-266 = format: functional, cell-based, Homo sapiens
Description: SANGER: Inhibition of human U-266 cell growth in a cell viability assay.

SHP77 = format: functional, cell-based, Homo sapiens, SHP-77;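 also: growth inhibition of human SHP-77 cells measured by a cell viability assay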
Description: SANGER: Inhibition of human SHP-77 cell growth in a cell viability assay.

D283 Med = format: functional, cell-based, Homo sapiens
Description: SANGER: Inhibition of human D-283MED cell growth in a cell viability assay.

EW-11 = format: functional, cell-based, Homo sapiens;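 also: growth inhibition of human EW-11 cells, measured with a cell viability assay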
Description: SANGER: Inhibition of human EW-11 cell growth in a cell viability assay.

A4-Fuk = format: functional, cell-based, Homo sapiens;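 also: growth inhibition of A4-Fuk cells, read out by a cell viability assay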
Description: SANGER: Inhibition of human A4-Fuk cell growth in a cell viability assay.

SK-N-DZ = format: functional, cell-based, Homo sapiens;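 also: growth inhibition of the cancer cell line, read out through a viability assay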
Description: SANGER: Inhibition of human SK-N-DZ cell growth in a cell viability assay.

KNS-81-FD = format: functional, cell-based, Homo sapiens;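 also: growth inhibition of KNS-81-FD cells, read out with a cell viability assay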
Description: SANGER: Inhibition of human KNS-81-FD cell growth in a cell viability assay.

JVM-3 = format: functional, cell-based, Homo sapiens;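 also: growth inhibition of human JVM-3 cells, read out with a cell viability assay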
Description: SANGER: Inhibition of human JVM-3 cell growth in a cell viability assay.

IA-LM = format: functional, cell-based, Homo sapiens;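 also: cell viability assay measuring growth inhibition of human IA-LM cells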
Description: SANGER: Inhibition of human IA-LM cell growth in a cell viability assay.

COc1cc2ncn(-c3cc(OCc4ccccc4S(C)(=O)=O)c(C#N)s3)c2cc1OC [GSK-319347A]
IC50 (SK-UT-1; Homo sapiens, SK-UT-1): > 5 µM | IC50 (TE-1; Homo sapiens, TE-1): > 5 µM | IC50 (MC116; Homo sapiens, MC116): > 5 µM | IC50 (CCRF-CEM; Homo sapiens, CCRF-CEM): > 5 µM | IC50 (EW-3; Homo sapiens, EW-3): > 5 µM | IC50 (CP66-MEL; Homo sapiens, CP66-MEL): > 5 µM | IC50 (GR-ST; Homo sapiens, GR-ST): > 5 µM | IC50 (NCI-N87; Homo sapiens, NCI-N87): > 5 µM | IC50 (HEL; Homo sapiens, HEL): > 5 µM | IC50 (TE-12; Homo sapiens, TE-12): > 5 µM | IC50 (A388; Homo sapiens, A388): > 5 µM | IC50 (COLO-668; Homo sapiens, COLO-668): > 5 µM | IC50 (ES8; Homo sapiens, ES8): > 5 µM | IC50 (LNCaP-Clone-FGC; Homo sapiens, LNCaP-Clone-FGC): > 5 µM | IC50 (SH-4; Homo sapiens, SH-4): > 5 µM | IC50 (LU-134-A; Homo sapiens, LU-134-A): > 5 µM | IC50 (NKM-1; Homo sapiens, NKM-1): > 5 µM | IC50 (HCC2218; Homo sapiens, HCC2218): > 5 µM | IC50 (NCI-H23; Homo sapiens, NCI-H23): > 5 µM | IC50 (DSH1; Homo sapiens, DSH1): > 5 µM | IC50 (SW 954; Homo sapiens, SW 954): > 5 µM | IC50 (KARPAS-45; Homo sapiens, KARPAS-45): > 5 µM | IC50 (BE-13; Homo sapiens, BE-13): > 5 µM | IC50 (U-87 MG; Homo sapiens, U-87 MG): > 5 µM | IC50 (LC-2-ad; Homo sapiens, LC-2-ad): > 5 µM | IC50 (A498; Homo sapiens, A498): > 5 µM | IC50 (SK-MEL-2; Homo sapiens, SK-MEL-2): > 5 µM | IC50 (NCI-H526; Homo sapiens, NCI-H526): > 5 µM | IC50 (EW-24): > 5 µM | IC50 (NOMO-1; Homo sapiens, NOMO-1): > 5 µM | IC50 (ES3; Homo sapiens, ES3): > 5 µM | IC50 (SK-N-FI; Homo sapiens, SK-N-FI): > 5 µM | IC50 (IST-MEL1; Homo sapiens, IST-MEL1): > 5 µM | IC50 (RH-1; Homo sapiens, RH-1): > 5 µM | IC50 (HCE-T; Homo sapiens, HCE-T): > 5 µM | IC50 (MEG-01; Homo sapiens, MEG-01): > 5 µM | IC50 (KM12; Homo sapiens, KM12): > 5 µM | IC50 (GB-1; Homo sapiens, GB-1): > 5 µM | IC50 (ACN; Homo sapiens, ACN): > 5 µM | IC50 (NCI-H747; Homo sapiens, NCI-H747): > 5 µM | IC50 (U-266; Homo sapiens, U-266): > 5 µM | IC50 (SHP77; Homo sapiens, SHP77): > 5 µM | IC50 (D283 Med; Homo sapiens, D283 Med): > 5 µM | IC50 (EW-11; Homo sapiens, EW-11): > 5 µM | IC50 (A4-Fuk; Homo sapiens, A4-Fuk): > 5 µM | IC50 (SK-N-DZ; Homo sapiens, SK-N-DZ): > 5 µM | IC50 (KNS-81-FD; Homo sapiens, KNS-81-FD): > 5 µM | IC50 (JVM-3; Homo sapiens, JVM-3): > 5 µM

CN(C)C(=N)NC(=N)N [METFORMIN]
IC50 (SK-UT-1; Homo sapiens, SK-UT-1): > 20000 µM | IC50 (TE-1; Homo sapiens, TE-1): > 20000 µM | IC50 (MC116; Homo sapiens, MC116): > 20000 µM | IC50 (CCRF-CEM; Homo sapiens, CCRF-CEM): 2720 µM | IC50 (EW-3; Homo sapiens, EW-3): 12200 µM | IC50 (GR-ST; Homo sapiens, GR-ST): > 20000 µM | IC50 (NCI-N87; Homo sapiens, NCI-N87): > 20000 µM | IC50 (TE-12; Homo sapiens, TE-12): > 20000 µM | IC50 (A388; Homo sapiens, A388): > 20000 µM | IC50 (COLO-668; Homo sapiens, COLO-668): > 20000 µM | IC50 (ES8; Homo sapiens, ES8): 17100 µM | IC50 (LNCaP-Clone-FGC; Homo sapiens, LNCaP-Clone-FGC): 5230 µM | IC50 (SH-4; Homo sapiens, SH-4): > 20000 µM | IC50 (LU-134-A; Homo sapiens, LU-134-A): 13000 µM | IC50 (NKM-1; Homo sapiens, NKM-1): 9110 µM | IC50 (HCC2218; Homo sapiens, HCC2218): 701 µM | IC50 (NCI-H23; Homo sapiens, NCI-H23): 17100 µM | IC50 (DSH1; Homo sapiens, DSH1): > 20000 µM | IC50 (SW 954; Homo sapiens, SW 954): > 20000 µM | IC50 (KARPAS-45; Homo sapiens, KARPAS-45): 3050 µM | IC50 (BE-13; Homo sapiens, BE-13): 18000 µM | IC50 (U-87 MG; Homo sapiens, U-87 MG): > 20000 µM | IC50 (A498; Homo sapiens, A498): > 20000 µM | IC50 (SK-MEL-2; Homo sapiens, SK-MEL-2): > 20000 µM | IC50 (IA-LM; Homo sapiens, IA-LM): > 20000 µM | IC50 (NCI-H526; Homo sapiens, NCI-H526): 16100 µM | IC50 (EW-24): 9450 µM | IC50 (NOMO-1; Homo sapiens, NOMO-1): > 20000 µM | IC50 (ES3; Homo sapiens, ES3): 16900 µM | IC50 (SK-N-FI; Homo sapiens, SK-N-FI): > 20000 µM | IC50 (IST-MEL1; Homo sapiens, IST-MEL1): > 20000 µM | IC50 (MEG-01; Homo sapiens, MEG-01): 8620 µM | IC50 (KM12; Homo sapiens, KM12): > 20000 µM | IC50 (GB-1; Homo sapiens, GB-1): > 20000 µM | IC50 (NCI-H747; Homo sapiens, NCI-H747): > 20000 µM | IC50 (U-266; Homo sapiens, U-266): > 20000 µM | IC50 (SHP77; Homo sapiens, SHP77): > 20000 µM | IC50 (D283 Med; Homo sapiens, D283 Med): > 20000 µM | IC50 (EW-11; Homo sapiens, EW-11): > 20000 µM | IC50 (A4-Fuk; Homo sapiens, A4-Fuk): > 20000 µM | IC50 (SK-N-DZ; Homo sapiens, SK-N-DZ): 13300 µM | IC50 (KNS-81-FD; Homo sapiens, KNS-81-FD): 8880 µM | IC50 (JVM-3; Homo sapiens, JVM-3): > 20000 µM

CISPLATIN
IC50 (SK-UT-1; sk-ut-1): 12.9 µM | IC50 (TE-1; te-1): 38.5 µM | IC50 (MC116; mc116): 86.9 µM | IC50 (CCRF-CEM; ccrf-cem): 96 µM | IC50 (EW-3; ew-3): 1.6 µM | IC50 (CP66-MEL; cp66-mel): 32 µM | IC50 (GR-ST; gr-st): 7.5 µM | IC50 (NCI-N87; nci-n87): 33 µM | IC50 (HEL; hel): 1.39 µM | IC50 (TE-12; te-12): 42.6 µM | IC50 (A388; a388): 51.9 µM | IC50 (COLO-668; colo-668): 103 µM | IC50 (ES8; es8): 3.43 µM | IC50 (LNCaP-Clone-FGC; lncap-clone-fgc): 515 µM | IC50 (SH-4; sh-4): 68.7 µM | IC50 (LU-134-A; lu-134-a): 3.94 µM | IC50 (NKM-1; nkm-1): 6.04 µM | IC50 (HCC2218; hcc2218): 398 µM | IC50 (NCI-H23; nci-h23): 40 µM | IC50 (DSH1; dsh1): 145 µM | IC50 (SW 954; sw 954): 11.1 µM | IC50 (KARPAS-45; karpas-45): 361 µM | IC50 (BE-13; be-13): 51.1 µM | IC50 (U-87 MG; u-87mg atcc): 16.2 µM | IC50 (LC-2-ad; lc-2-ad): 12.2 µM | IC50 (A498; a498): 19.6 µM | IC50 (SK-MEL-2; sk-mel-2): 226 µM | IC50 (IA-LM; ia-lm): 23.1 µM | IC50 (NCI-H526; nci-h526): 2.06 µM | IC50 (NOMO-1; nomo-1): 123 µM | IC50 (ES3; es3): 0.863 µM | IC50 (SK-N-FI; sk-n-fi): 313 µM | IC50 (IST-MEL1; ist-mel1): 9.38 µM | IC50 (RH-1; rh-1): 333 µM | IC50 (HCE-T; hce-t): 7.9 µM | IC50 (MEG-01; meg-01): 21.7 µM | IC50 (KM12; km12): 114 µM | IC50 (GB-1; gb-1): 1.9 µM | IC50 (ACN; acn): 34.3 µM | IC50 (NCI-H747; nci-h747): 16.9 µM | IC50 (U-266; u-266): 154 µM | IC50 (SHP77; shp-77): 602 µM | IC50 (D283 Med; d283 med): 5.85 µM | IC50 (EW-11; ew-11): 21 µM | IC50 (A4-Fuk; a4-fuk): 47.5 µM | IC50 (SK-N-DZ; sk-n-dz): 26.8 µM | IC50 (KNS-81-FD; kns-81-fd): 535 µM | IC50 (JVM-3; jvm-3): 39.7 µM
